Results on two compounds are retold here after patent US20230059009A1, “INHIBITORS OF LIN28 AND METHODS OF USE THEREOF” (The Regents of the University of California, priority 2019, published 2023).

In one data set the test system is MCF7. Briefly: Cell viability, CTG, MCF7. Format: cell-based. The following applies: Homo sapiens, MCF7 (Breast). The procedure: To measure cell viability, cell titer glow (CTG, Promega CellTiter-Glo 2.0 Assay) and MTT assays (SigmaAldrich, Cell Proliferation Kit I) were performed. Briefly, cells were serum starved overnight prior to seeding in 96-well plates. Following 24 h incubation, cells were treated with increasing concentrations of JGJ compounds for 96 hr. At assay read-out, CellTiter-Glo reagent was added and luminescence was measured after 10-minutes incubation at room temperature. For the MTT assay, MTT labeling reagent was added and incubated for 4 h. Subsequently, medium was removed and 50 μL DMSO was added to solubilize the crystals, and absorbance was measured at 570 nm. Cell viability was calculated as (Sample-Background)/(Control-Background). Current standard of care drugs, Enzalutamide, Palbociclib and Cetuximab were used as comparative controls.

Another data set has as its system MOLM-13 (no LIN28B). Briefly: Subcutaneous MOLM-13 AML xenograft. The class given is in vivo. The following applies: MOLM-13 subQ in NSG mice, 100 mg/kg IP every other day.
The next data set deals with Kasumi-1. Briefly: Systemic Kasumi-1 AML xenograft. The class given is in vivo, mice. The following applies: systemic Kasumi-1 xenograft; for Animal survival: IP 100 mg/kg every other day for 21 d; for Tumor burden (bioluminescence imaging): IP 100 mg/kg every other day, d+26. The procedure:
(§1) Subsequently, the tumor suppressive effect of LN1632 in cancer in vivo was assessed. High LIN28B expressing THP-1 AML cells (2×10^6 cells) were implanted in NSGS mice (cell suspension in matrigel, 3:1) and at d+12 or d+8 (tumor size=50 mm^2) injection of LN1632 IP at 100 mg/kg daily was initiated. […] The effect of LN1632 in a systemic Kasumi-1 xenograft was also assessed. […] The effects of LN1632 to cytarabine chemotherapy (Ara-C) was also compared, as previously described (74). THP-1 AML cells were subcutaneously implanted (1.5×10^6 cells, high LIN28B) in NSGS mice. Daily IP injections with 100 mg/kg LN1632, 60 mg/kg cytarabine chemotherapy (Ara-C), or vehicle was started at +d3 post AML cell implantation and continued until the vehicle group reached maximal allowed tumor size (250 mm^2).

The test system of data set [1] is let-7 target genes / MYC target gene signatures. Briefly: RNA sequencing in Kasumi-1 cells. Format: cell-based, human. As to conditions: 40 μM or 100 μM LN1632 vs control. An excerpt: To measure the complete degree to which LN1632 regulates gene expression, we carried out RNA sequencing (RNAseq) in LSC-like Kasumi-1 cells. […] Importantly, we confirmed this gene expression pattern in primary AML cells from three relapsed patients (validated for LIN28B overexpression compared to healthy WBM). […] This is important because NFκB1, regulated by let-7 through IL6 (23) is, together with other BCL-2 family members (BAX, BCL2L15 and BMF, FIG. 5A), a well characterized gene associated with unique properties of LSC survival and AML relapse (45, 59, 60). […] We next explored the effect of LN1632 on primary AML cells.
To determine the degree to which LN1632 regulates gene expression, RNA sequencing was performed in human Kasumi-1 AML cells. […] In addition, ingenuity pathway analysis predicted suppression of upstream signaling molecules IL6 and MYC (FIG. 9C).

Data set [2] relates to LIN28B-expressing Ewing Sarcoma (EwS). The following applies: recent report (72); cited from earlier work.
A further data set has as its system LSCs. Briefly: Colony forming capacity (CFC) of iMLL-AF9 LT-HSC derived LSCs. Format: cell-based, mouse. The following applies: 200 nM Ara-C or 30 μM 1632, 48 h. An excerpt:
In addition, Lin28 was independently found to be a key driver in MLL-associated leukemias (56). In order to further characterize the role of Lin28/let-7 in regulating AML, LSC proliferation and therapy resistance in vivo, we used a doxycycline (DOX) inducible, transgenic mouse model for MLL-AF9-driven AML (iMLL-AF9 (57)). In this model, long-term HSC (LT-HSC, Lin^−CD34^−[…] c-Kit^+ CD150^+ CD48^−) derived AML blasts closely mirror an LSC-like phenotype resulting in a particularly aggressive, Cytarabine (Ara-C) resistant AML (57). […] Moreover, relapsed AML cells arising from rLSCs after treatment with Ara-C (100 mg/kg) at d+60 were even further enriched in Lin28b expression (FIG. 2B). Additionally, levels of both, let-7a and let-7b miRNAs, negatively correlated with increased Lin28b in rLSCs (FIG. 2C) (10, 39). Our findings are consistent with papers reporting that increased Lin28 correlates with disease recurrence post chemotherapy in colon and liver cancer stem cells (22, 58).
As Lin28 is overexpressed human AML, LSCs and rLSCs, we sought to determine if genetic Lin28b or pharmacologic Lin28/let-7 inhibition via LN1632 can abrogate proliferation of LSCs and thus overcome their therapy resistance. […]

In a further data set the test system is Caco2. Briefly: Caco2 permeability. The class given is in vitro ADME. As to conditions: Conc. 100 uM. (In general: Caco-2 cells form a polarised layer with tight junctions and transporters.)
Data set [3] in a line: Tolerability / MTD in healthy C57BL/6 mice. The procedure:
Next, the tumor suppressive effect of LN1632 in vivo was investigated. The maximum tolerated dose (MTD) was evaluated in healthy female C57Bl/6 mice.

Data set [4] relates to THP-1 cells (high LIN28B). Briefly: Subcutaneous THP-1 AML xenograft. The class given is in vivo, NSG / NSGS mice. The following applies: for Tumor growth: 100 mg/kg. The procedure: as §1

“Also recorded” adds a separate entry of the source.

Protocol for MOLM-13 (no LIN28B): Thus, we subcutaneously (subQ) implanted THP-1 (high LIN28B) cells or MOLM-13 (no LIN28B) into NSG mice and 12 d later (tumor size=40 mm^2) started administration of 1632 IP at 100 mg/kg every other day.

The term IC50 denotes the point on the concentration scale where inhibition reaches its midpoint. `CC(=O)Nc1cccc(-c2ccc3ncc(C)n3n2)c1` [JGJ007, N-(3-(3-Methylimidazo[1,2-b]pyridazin-6-yl)phenyl)acetamide] came in with a concentration for half-maximal inhibition (IC50) with MCF7 of 115 µM.

As for `CC(=O)N(C)c1cccc(-c2ccc3nnc(C)n3n2)c1` [LN1632], the Tumor growth entry in the data set on MOLM-13 (no LIN28B) was “minimal effect on tumor growth; also recorded: significantly reduced tumor growth in THP-1 but not MOLM-13”. For the same compound, in the data set on Kasumi-1 (100 mg/kg), the Animal survival result is “significantly prolonged animal survival; also recorded: prolongs survival” and the “Tumor burden (bioluminescence imaging)” value was “decreased tumor burden; also recorded: reduces tumor burden”. For the same compound, in the data set on Kasumi-1 (listed as 1632, 100 mg/kg), the Animal survival entry is on record as “prolongs survival; also recorded: significantly prolonged animal survival” and the “Tumor burden (bioluminescence imaging)” value is “reduces tumor burden; also recorded: decreased tumor burden”. In addition, the “Gene expression (RNAseq)” value in data set [1] was “significant downregulation of a panoply of direct let-7 target genes; also recorded: significantly downregulated genes of the HALLMARK_MYC-TARGETS_V1 gene signature”. For the same compound, in data set [2], the “Suppression of Ewing Sarcoma” value is on record as “selectively suppresses LIN28B-expressing Ewing Sarcoma (EwS) but not LIN28B depleted EwS”. Further, the “Colony forming capacity cell numbers (CFCs) of LSCs” value in the data set with LSCs was “significantly abrogated CFCs of LSCs”. Also, in the data set on Caco2, the “Caco2 Mean A-B % Recovery” value is on record as 89.4%, the Caco2 efflux ratio came out at 1.08, the “Caco2 permeability Papp A-B” value is on record as “A-B: 20.9 10^−6 cm/s” and the “Caco2 permeability Papp B-A” value was “B-A: 22.7 10^−6 cm/s”. Moreover, the Weight gain result in data set [3] (100 mg/kg daily +12 d then every other day +9 d, at +21 d) is “normal weight gain; also recorded: no significant changes in weight gain”. The “Complete blood count (CBC) profile” value in data set [3] (100 mg/kg daily for +12 d then every other day for +9 d, female C57Bl/6 mice) is listed as “normal complete blood count (CBC) profile, without any leukopenia or thrombocytopenia, only mild anemia”. In addition, in [3] (100 mg/kg every other day for 21 d, healthy C57BL/6 mice), the Tolerability entry is on record as “non-toxic, well tolerated”. Besides, the “Tolerability (MTD evaluation)” value in data set [3] (mouse, in vivo) was “well tolerated”. Besides, the Tumor growth entry in [4] (THP-1 subQ in NSG mice, 100 mg/kg IP every other day) is “significantly slowed tumor growth; also recorded: significantly reduced tumor growth”. Also, the Tumor growth entry in [4] (THP-1 subQ in NSGS mice, 100 mg/kg IP daily) is “significantly reduced tumor growth 19 days post injection; also recorded: significantly slowed tumor growth”. For the same compound, the “AML tumor proliferation, LN1632 vs Ara-C” value in data set [4] (THP-1 subQ in NSGS mice, daily IP 100 mg/kg LN1632 or 60 mg/kg Ara-C from +d3) is listed as “increased inhibition of AML tumor proliferation compared to Ara-C or vehicle treated mice; also recorded: inhibited proliferation”.
